In patent US12643887B2, “Heterocyclic derivatives with cardiomyocyte proliferation activity for treatment of heart diseases” (Tongji University, priority 2019, dated 2026):

Experiments:
[1] = molecular target: T1, human HIPK2 (Homo sapiens, UniProt Q9H2X6); assay: HIPK2 enzyme assay (ADP-Glo); type: biochemical; details: ADP-Glo, ATP 5 μM; read-out: HIPK2 IC50
T1 construct: Recombinant human HIPK2 (1-640); GST (N); purchased SignalChem H04-11BG; host or cells: Sf9 insect cells
Experimental: The ability of compounds to inhibit human HIPK2 kinase activities was determined using a commercially available ADP-Glo™ Kinase Assay kit (Promega, Cat #V9102) according to the manufacturer's protocol.
(§1) Recombinant human HIPK2 (1-640) (expressed in Sf9 insect cells with an N-terminal GST tag) was purchased from SignalChem (Cat #H04-11BG). Recombinant full length human MBP (expressed in E. Coli cells with an N-terminal GST tag) was purchased from SignalChem (Cat #M42-54G). This assay, run in a 384-well plate format, is a generic method for measuring kinase activities using an ADP-Glo Kinase Assay Kit. The basic assay procedure involves two steps: (1) Enzymatic step: inhibitors are incubated with the kinase and then ATP (included in the ADP-Glo Kinase Assay Kit) and the MBP protein are added to start the enzymatic reaction; (2) Detection step: after the kinase reaction, first ADP-Glo™ Reagent is added to terminate the kinase reaction and deplete the remaining ATP. Second, the Kinase Detection Reagent is added to simultaneously convert ADP to ATP and allow the newly synthesized ATP to be measured using a luciferase/luciferin reaction. The light generated is measured using a luminometer.
(§2) Briefly, HIPK2 (1 nM) in the enzymatic buffer solutions (40 mM Tris, pH 7.5, 20 mM MgCl2, 0.1 mg/ml BSA, 50 μM DTT) were mixed with various concentrations of inhibitors (dissolved in 100% DMSO). These solutions were incubated for 30 minutes at 25° C., and subsequently a mixture of substrate peptide and ATP was added with the final peptide and ATP concentrations at 0.05 mg/ml and 5 μM, respectively. The final reaction mixture of enzyme-substrate-ATP-compound was incubated for 90 minutes at 25° C.
(§3) Afterwards ADP-Glo™ Reagent was added and the mixture was incubated at 25° C. for 60 minutes. Then Kinase Detection Reagent was added, and the final mixture was incubated at 25° C. for 60 minutes. The luminescence signal of the final solution was measured on an Envision instrument (PerkinElmer). The percent (%) inhibition at each concentration of a compound is calculated relative to the luminescence signal in the Max and Min control wells contained within each assay plate. […] The concentrations and percent inhibition values for a test compound are plotted and the concentration of the compound required to achieve 50% inhibition (IC50) is determined with a four-parameter logistic dose response equation.

[2] = molecular target: T2, human DYRK1A (Homo sapiens, UniProt Q13627); assay: DYRK1A enzyme assay (ADP-Glo); type: biochemical; details: ADP-Glo, ATP 60 μM; read-out: DYRK1A IC50
T2 construct: Recombinant full-length DYRK1A (expressed in E. Coli cells with an N-terminal GST tag); GST (N); purchased SignalChem D09-10G; host or cells: E. coli
Experimental: The ability of compounds to inhibit human DYRK1A kinase activities was determined using a commercially available ADP-Glo™ Kinase Assay kit (Promega, Cat #V9102) according to the manufacturer's protocol.
as §1, with “full-length DYRK1A” for “human HIPK2 (1-640) (expressed in Sf9 insect cells with an N-terminal GST tag) was purchased from SignalChem (Cat #H04-11BG). Recombinant full length human MBP”, “#D09-10G). The DYRK substrate peptide (DYRKtide, sequence: […]) was purchased from SignalChem (Cat #D96-58).” for “#M42-54G).”, “DYRKtide” for “MBP protein”
as §2, with “Briefly, DYRK1A (3” for “Briefly, HIPK2 (1”, “at 20 μM” for “at 0.05 mg/ml”, “and 60” for “and 5”, “for 60” for “for 90”
as §3, with “added” for “added,”

T1 sequence (Q9H2X6 1-640): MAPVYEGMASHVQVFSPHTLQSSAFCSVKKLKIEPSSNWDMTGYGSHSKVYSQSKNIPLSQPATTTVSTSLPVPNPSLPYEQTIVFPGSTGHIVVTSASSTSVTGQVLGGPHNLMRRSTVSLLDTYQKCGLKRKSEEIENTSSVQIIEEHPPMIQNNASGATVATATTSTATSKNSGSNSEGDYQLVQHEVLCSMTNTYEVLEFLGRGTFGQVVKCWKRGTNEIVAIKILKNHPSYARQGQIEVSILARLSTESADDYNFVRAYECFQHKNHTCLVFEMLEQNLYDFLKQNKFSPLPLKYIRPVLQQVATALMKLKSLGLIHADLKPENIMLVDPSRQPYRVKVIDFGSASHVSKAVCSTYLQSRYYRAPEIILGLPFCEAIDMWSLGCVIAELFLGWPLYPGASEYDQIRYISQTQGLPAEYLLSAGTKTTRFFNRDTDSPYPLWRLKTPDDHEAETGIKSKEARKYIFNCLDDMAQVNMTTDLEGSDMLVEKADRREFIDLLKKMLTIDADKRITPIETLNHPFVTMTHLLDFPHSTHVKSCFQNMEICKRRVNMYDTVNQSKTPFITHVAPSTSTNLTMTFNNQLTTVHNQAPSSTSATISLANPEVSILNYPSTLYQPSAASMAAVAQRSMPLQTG

| SMILES | IC50 [1] [nM] | IC50 [2] [nM] |
| --- | --- | --- |
| CN(CCN1CCOCC1)C1=N/C(=C\c2ccc3c(c2)OCO3)C(=O)N1 [Example 20, (Z)-5-(benzo[d][1,3]dioxol-5-ylmethylene)-2-(methyl(2-morpholinoethyl)amino)-3,5-dihydro-4H-imidazol-4-one] | > 10000 | 100 to 1000 |
| CN(C1=N/C(=C\c2ccc3ncsc3c2)C(=O)N1)c1ccc(Cl)cc1 [Example 24, (Z)-5-(benzo[d]thiazol-6-ylmethylene)-2-((4-chlorophenyl)(methyl)amino)-3,5-dihydro-4H-imidazol-4-one] | 100 to 1000 | 100 to 1000 |
| O=C1NC(Nc2ccccc2)=N/C1=C\c1ccc2[nH]cnc2c1 [Example 26, (Z)-5-((1H-benzo[d]imidazol-5-yl)methylene)-2-(phenylamino)-3,5-dihydro-4H-imidazol-4-one] | 100 to 1000 | < 100 |
| O=C(O)CCN(C1=N/C(=C\c2ccc3c(c2)OCO3)C(=O)N1)c1ccccc1 [Example 27, (Z)-3-((4-(benzo[d][1,3]dioxol-5-ylmethylene)-5-oxo-4,5-dihydro-1H-imidazol-2-yl)(phenyl)amino)propanoic acid] | 1000 to 10000 | 1000 to 10000 |
| CN(Cc1ccccc1)C1=N/C(=C\c2ccc3ncsc3c2)C(=O)N1 [Example 28, (Z)-5-(benzo[d]thiazol-6-ylmethylene)-2-(benzyl(methyl)amino)-3,5-dihydro-4H-imidazol-4-one] | 1000 to 10000 | 100 to 1000 |
| O=C1NC(NCCN2CCOCC2)=N/C1=C\c1ccc2ncsc2c1 [Example 29, (Z)-5-(benzo[d]thiazol-6-ylmethylene)-2-((2-morpholinoethyl)amino)-3,5-dihydro-4H-imidazol-4-one] | 1000 to 10000 | 100 to 1000 |
| CN(C1=N/C(=C\c2ccc3[nH]cnc3c2)C(=O)N1)c1ccccc1 [Example 30, (Z)-5-((1H-benzo[d]imidazol-5-yl)methylene)-2-(methyl(phenyl)amino)-3,5-dihydro-4H-imidazol-4-one] | > 10000 | 1000 to 10000 |
| CN(CCN1CCOCC1)C1=N/C(=C\c2ccc3ncsc3c2)C(=O)N1 [Example 32, (Z)-5-(benzo[d]thiazol-6-ylmethylene)-2-(methyl(2-morpholinoethyl)amino)-3,5-dihydro-4H-imidazol-4-one] | > 10000 | 1000 to 10000 |
| CN(CC1CC1)C1=N/C(=C\c2ccc3ncsc3c2)C(=O)N1 [Example 33, (Z)-5-(benzo[d]thiazol-6-ylmethylene)-2-((cyclopropylmethyl)(methyl)amino)-3,5-dihydro-4H-imidazol-4-one] | 1000 to 10000 | 1000 to 10000 |
| O=C1NC(N(Cc2ccccc2)c2ccccc2)=N/C1=C\c1ccc2[nH]cnc2c1 [Example 35, (Z)-5-((1H-benzo[d]imidazol-5-yl)methylene)-2-(benzyl(phenyl)amino)-3,5-dihydro-4H-imidazol-4-one] | > 10000 | 1000 to 10000 |
| NC(=O)CCN(C1=N/C(=C\c2ccc3c(c2)OCO3)C(=O)N1)c1ccccc1 [Example 36, (Z)-3-((4-(benzo[d][1,3]dioxol-5-ylmethylene)-5-oxo-4,5-dihydro-1H-imidazol-2-yl)(phenyl)amino)propanamide] | > 10000 | 100 to 1000 |
| O=C1NC(N(CC2CC2)c2ccccc2)=N/C1=C\c1ccc2c(c1)OCCO2 [Example 39, (Z)-2-((cyclopropylmethyl)(phenyl)amino)-5-((2,3-dihydrobenzo[b][1,4]dioxin-6-yl)methylene)-3,5-dihydro-4H-imidazol-4-one] | > 10000 | 1000 to 10000 |
| O=C1NC(N(Cc2ccccc2)c2ccccc2)=N/C1=C\c1ccc2ncsc2c1 [Example 41, (Z)-5-(benzo[d]thiazol-6-ylmethylene)-2-(benzyl(phenyl)amino)-3,5-dihydro-4H-imidazol-4-one] | 1000 to 10000 | 100 to 1000 |
| CN(C1=N/C(=C\c2ccc3ncsc3c2)C(=O)N1)c1ccc([N+](=O)[O-])cc1 [Example 43, (Z)-5-(benzo[d]thiazol-6-ylmethylene)-2-(methyl(4-nitrophenyl)amino)-3,5-dihydro-4H-imidazol-4-one] | > 10000 | 1000 to 10000 |
| CC(C)NC1=N/C(=C\c2ccc3scnc3c2)C(=O)N1 [Example 49, (Z)-5-(benzo[d]thiazol-5-ylmethylene)-2-(isopropylamino)-3,5-dihydro-4H-imidazol-4-one] | > 10000 | > 10000 |
| O=C1NC(NC23CC4CC(CC(C4)C2)C3)=N/C1=C\c1ccc2scnc2c1 [Example 50, (Z)-2-(adamantan-1-ylamino)-5-(benzo[d]thiazol-5-ylmethylene)-3,5-dihydro-4H-imidazol-4-one] | > 10000 | 1000 to 10000 |
| O=C1NC(Nc2ccccc2)=N/C1=C\c1ccc2[nH]ccc2c1 [Example 51, (Z)-5-((1H-indol-5-yl)methylene)-2-(phenylamino)-3,5-dihydro-4H-imidazol-4-one] | > 10000 | > 10000 |
| O=C1NC(Nc2ccccc2)=N/C1=C\c1ccc2cn[nH]c2c1 [Example 54, (Z)-5-((1H-indazol-6-yl)methylene)-2-(phenylamino)-3,5-dihydro-4H-imidazol-4-one] | > 10000 | > 10000 |
| O=C1NC(Nc2ccccc2)=N/C1=C\c1ccc2[nH]ncc2c1 [Example 55, (Z)-5-((1H-indazol-5-yl)methylene)-2-(phenylamino)-3,5-dihydro-4H-imidazol-4-one] | 100 to 1000 | < 100 |
| O=C1NC(Nc2ccccc2)=N/C1=C\c1ccc2nn[nH]c2c1 [Example 56, (Z)-5-((1H-benzo[d][1,2,3]triazol-6-yl)methylene)-2-(phenylamino)-3,5-dihydro-4H-imidazol-4-one] | 1000 to 10000 | < 100 |
| O=C1NC(Nc2ccc3ncsc3c2)=N/C1=C\c1ccc2[nH]ccc2c1 [Example 58, (Z)-5-((1H-indol-5-yl)methylene)-2-(benzo[d]thiazol-6-ylamino)-3,5-dihydro-4H-imidazol-4-one] | > 10000 | > 10000 |
| O=C1NC(Nc2ccc3ncsc3c2)=N/C1=C\c1ccc2occc2c1 [Example 59, (Z)-2-(benzo[d]thiazol-6-ylamino)-5-(benzofuran-5-ylmethylene)-3,5-dihydro-4H-imidazol-4-one] | > 10000 | > 10000 |
| O=C1NC(Nc2ccc3ncsc3c2)=N/C1=C\c1ccc2cccnc2c1 [Example 60, (Z)-2-(benzo[d]thiazol-6-ylamino)-5-(quinolin-7-ylmethylene)-3,5-dihydro-4H-imidazol-4-one] | > 10000 | > 10000 |
